Earlier results as cited in patent US7186826B2, “Phosphorus-containing compounds and uses thereof” (ARIAD Gene Therapeutics, Inc., priority 2002, dated 2007).

Conditions: see WO 03/022807 and 99/15530

biological half-life: shortened
SMILES: CO[C@H]1C[C@@H]2CC[C@@H](C)[C@@](O)(O2)C(=O)C(=O)N2CCCC[C@H]2C(=O)O[C@H]([C@H](C)C[C@@H]2CC[C@H](n3cnnn3)[C@H](OC)C2)CC(=O)[C@H](C)/C=C(\C)[C@@H](O)[C@@H](OC)C(=O)[C@H](C)C[C@H](C)/C=C/C=C/C=C/1C [ABT-578]
